Assays:
[1] = test system: TLR7 (R837) induced cytokine production in PBMCs; test: ELISA of IL-1β and IL-6 in supernatant of R837 stimulated PBMCs; type: cell-based, human; settings: R837-stimulated human PBMCs
Protocol: RAW264.7 cells, a mouse macrophage cell line, were cultured in DMEM medium containing 10% fetal bovine serum (FBS), 1% penicillin-streptomycin and maintained at 37 °C in 5% CO2 humidified air. Bone marrow-derived macrophages (BMDMs) generation was performed as following description. In brief, bone marrow cells were harvested from tibias and femurs of C57BL/6 mice and differentiated for 7 days in DMEM medium supplemented with 10% FBS, 1% penicillin-streptomycin and 50 ng/ml M-CSF. For human peripheral blood mononuclear cells (PBMCs) preparation, 5 ml peripheral venous blood was obtained from healthy donors in West China Hospital. PBMCs were isolated with Human Lymphocyte Separation Medium (LTS1077, Tian Jing, China) according to the manufacturer’s instructions. The experimental protocols were performed according to the approved guidelines established by the Institutional Human Research Subject Protection Committee of the Ethics Committee of West China Hospital, Sichuan University, China.
RAW264.7 cells (5×10^5/ml), BMDMs (5×10^5/ml) and PBMCs (2×10^6/ml) were plated in 96-well plates and incubated overnight. […]
IL-4, IL-17A and TNF-α in sera from different group mice were measured using CBA Multiplex kit (BD, United States). The concentrations of IL-1β and IL-6 in serum or supernatant were detected by ELISA Kit (MULTI SCIENCES, China) according to the manufacturers’ instructions.

[2] = test system: IL-1β and IL-6 in the ankle; test: Immunochemistry staining for IL-1β and IL-6 in ankles; type: in vivo, C57BL/6 mice; settings: STA mice; EFL2 15 or 40 mg/kg
Protocol: The dissected left ankles were fixed in 4% formaldehyde overnight. Embedding, de-paraffinization, and re-hydration of the ankle sections were the same as described for H&E staining. After treated with 3% […] for 10 min, the tissue sections were immersed in a 10 mM sodium citrate buffer (pH 6.0) for 15 min at 95°C, and washed with PBS. The sections were then blocked with 5% goat serum in PBS, and incubated with primary antibodies overnight at 4°C. Primary antibodies were as follows: rabbit anti-mouse IL-1β (1:600, Abcam, China); rabbit anti-mouse IL-6 (1:50, Abcam, China). The signal was visualized using an Envision System (DAKO, United States). The images were then acquired by microscopy (Leica DMil).

`C=C1C(OC(=O)c2ccccc2)CC2C(C=C(C)C(=O)C3(OC(C)=O)CC(C)C(OC(=O)c4ccccc4)C3C1OC(C)=O)C2(C)C` (centres unmarked) [EFL2, Euphorbia factor L2] was tested, and the “suppressive effect on IL-1β production compared with IL-6” value [1] was “prior to that on IL-6” and the “IL-1β and IL-6 production in local inflamed joints (immunohistochemical staining)” value [2] was “could inhibit”.
